Assay results taken from patent publication EP0621342A1, “Reagent and kit for determining isoprenylating activity and inhibition thereof” (NEDERLANDSE ORGANISATIE VOOR …, priority 1993, dated 1994).

Target: protein:farnesyltransferase (Oryctolagus cuniculus, UniProt G1SFC8+G1T7D9)
Experiment: Inhibition of protein:farnesyl transferase activity in rabbit reticulocyte lysate (Sepharose-bound peptide, 3H-FPP)
Type: biochemical
Conditions: 80 pmol of pepAsep and pepBsep/5 µl beads, 0.7 µM ³H-FPP, 30 min at 37°C, read-out: IC₅₀-value
Procedure: Commercially available rabbit reticulocyte lysate contains enzymes necessary for protein-isoprenylation, such as protein:farnesyl transferase activity (Vorburger, K., Kitten, G.T. and Nigg, E.G., EMBO J. 8 (1989) 4007-4013) and protein:geranylgeranyl transferase (Maltese, W.A. and Robishaw, J.D., J. Biol. Chem. 265 (1990) 18071-18074). Using pepAsep (example I) as substrate and pepBsep (example I) as control the assay of protein:farnesyl transferase activity was performed as follows: In 25 µl of a mixture containing 5 µl of pepAsep or pepBsep (both containing an equal quantity of peptide), 13 µl rabbit reticulocyte lysate (Promega), 0.5 mM MgCl₂, 1 mM DTT, 50 mM Tris-HCl (pH 7.4) and [³H]-farnesyl pyrophosphate (³H-FPP; concentration as indicated in the figures; specific radioactivity 15 Ci/mmol; ARC, USA) the incubation was performed at 37°C for 30 min with continuous shaking. […] The radioactivity bound to the Sepharose was measured in a Packard Tricarb liquid scintillation counter. […]
80 pmol of pepAsep and pepBsep/5 µl Sepharose were incubated for 30 minutes in the presence of 0.7 µM of [³H]-FPP and the indicated concentrations of the farnesyl pyrophosphate analogues FPPA1 and FPPA2 as mentioned in Example IV. The farnesylation activity was calculated as ³H-dpm bound to pepAsep minus the pepBsep-bound-dpm and expressed as percentage of control (without inhibitor). […]

| SMILES | IC50 |
| --- | --- |
| CC(C)=CCC/C(C)=C/CC/C(C)=C/COCP(=O)(O)CP(=O)(O)O [FPPA1, (E,E) -[Hydroxy-(3,7,11-trimethyl-2,6,10-dodecatrienyloxymethylphosphinyl)methyl]phosphonic acid] | 5260 ± 1100 nM |
| CC(C)=CCCC(C)=CCCC(C)=CCP(=O)(O)OP(=O)(O)O [FPPA2, farnesyl phosphonophosphate] | 290 ± 20 nM |
